According to ChEMBL document CHEMBL1201862, “PubChem BioAssay data set” (2004):
Activity calls are given as the source filed them.

Assays:
[1] = target: T1, Sphingosine 1-phosphate receptor 2 (Homo sapiens, UniProt O95136); experiment: Dose Response Cell Based Assay for Agonists of the S1P2 Receptor of Purchased Analogues. [Related pubchem assays: 729, 843, 854, 736 ]; assay type: functional
Streptococcus = experiment: Streptococcus pyogenes growth inhibition counter-screen, dose response, counter-screen for streptokinase expression inhibitor project, luminescence, BacTiter-Glo, strain UMAA2166 (AID 2477); assay type: functional, organism-based
Streptokinase A = target: T2, Streptokinase A (Streptococcus pyogenes serotype M1, UniProt P10520); experiment: Absorbance Microorganism-Based Dose Response Follow up to Identify Inhibitors of Streptokinase Expression. [Related pubchem assays: 1677 (Project Summary), 1915, 1914, 1902 (Retest at Dose), 1900 (Counter Screen), 1662 (Primary HTS)]; assay type: functional, Streptococcus pyogenes M1 GAS
T2 sequence (P10520 whole entry): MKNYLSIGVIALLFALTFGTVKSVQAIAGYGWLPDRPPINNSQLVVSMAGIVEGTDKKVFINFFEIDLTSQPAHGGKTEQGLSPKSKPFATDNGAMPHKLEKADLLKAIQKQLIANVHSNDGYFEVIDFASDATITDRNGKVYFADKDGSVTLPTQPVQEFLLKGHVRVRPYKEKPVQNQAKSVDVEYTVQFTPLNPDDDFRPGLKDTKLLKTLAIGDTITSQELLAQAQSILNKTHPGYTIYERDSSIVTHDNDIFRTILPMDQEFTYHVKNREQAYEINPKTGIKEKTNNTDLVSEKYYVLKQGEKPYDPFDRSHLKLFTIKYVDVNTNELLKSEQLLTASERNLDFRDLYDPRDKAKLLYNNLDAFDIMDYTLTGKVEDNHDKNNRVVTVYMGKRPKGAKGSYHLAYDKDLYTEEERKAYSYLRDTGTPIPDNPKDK

Protein RecA = target: T3, Protein RecA (Mycobacterium tuberculosis, UniProt P9WHJ3); experiment: Fluorescence Cell-Free Homogeneous Dose Retest to Identify Inhibitors of RecA-Intein Splicing Activity. [Related pubchem assays (depositor defined):AID2097, AID2223, AID489010, AID492950]; assay type: functional
T3 sequence (P9WHJ3 whole entry): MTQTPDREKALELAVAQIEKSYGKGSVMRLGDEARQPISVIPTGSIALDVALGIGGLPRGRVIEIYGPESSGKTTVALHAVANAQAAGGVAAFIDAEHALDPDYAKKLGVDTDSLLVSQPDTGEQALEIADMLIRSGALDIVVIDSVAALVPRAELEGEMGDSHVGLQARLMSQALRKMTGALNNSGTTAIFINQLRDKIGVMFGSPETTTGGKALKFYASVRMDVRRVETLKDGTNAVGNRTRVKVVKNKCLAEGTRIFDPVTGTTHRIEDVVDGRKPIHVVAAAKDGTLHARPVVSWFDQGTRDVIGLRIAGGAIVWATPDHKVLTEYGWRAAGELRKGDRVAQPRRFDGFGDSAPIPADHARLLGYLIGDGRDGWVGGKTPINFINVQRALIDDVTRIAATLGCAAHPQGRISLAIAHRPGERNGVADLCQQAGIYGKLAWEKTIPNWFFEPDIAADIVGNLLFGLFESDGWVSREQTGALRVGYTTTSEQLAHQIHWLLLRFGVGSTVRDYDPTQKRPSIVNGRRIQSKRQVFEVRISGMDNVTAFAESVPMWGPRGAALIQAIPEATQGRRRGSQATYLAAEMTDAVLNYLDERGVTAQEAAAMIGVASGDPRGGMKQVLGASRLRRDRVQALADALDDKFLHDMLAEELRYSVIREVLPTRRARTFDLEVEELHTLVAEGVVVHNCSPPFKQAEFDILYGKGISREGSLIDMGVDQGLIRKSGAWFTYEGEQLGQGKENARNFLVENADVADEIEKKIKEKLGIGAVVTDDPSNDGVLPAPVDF

[2] = target: Potassium voltage-gated channel subfamily KQT member 2 (Rattus norvegicus, UniProt O88943, W236L); experiment: KCNQ2 channel potentiators, dose response, mechanism study for KCNQ2 potentiator project, cell-based, automated electrophysiology (AID 2603); assay type: functional
Potassium voltage-gated channel subfamily KQT member 2, sequence (O88943 whole entry W236L): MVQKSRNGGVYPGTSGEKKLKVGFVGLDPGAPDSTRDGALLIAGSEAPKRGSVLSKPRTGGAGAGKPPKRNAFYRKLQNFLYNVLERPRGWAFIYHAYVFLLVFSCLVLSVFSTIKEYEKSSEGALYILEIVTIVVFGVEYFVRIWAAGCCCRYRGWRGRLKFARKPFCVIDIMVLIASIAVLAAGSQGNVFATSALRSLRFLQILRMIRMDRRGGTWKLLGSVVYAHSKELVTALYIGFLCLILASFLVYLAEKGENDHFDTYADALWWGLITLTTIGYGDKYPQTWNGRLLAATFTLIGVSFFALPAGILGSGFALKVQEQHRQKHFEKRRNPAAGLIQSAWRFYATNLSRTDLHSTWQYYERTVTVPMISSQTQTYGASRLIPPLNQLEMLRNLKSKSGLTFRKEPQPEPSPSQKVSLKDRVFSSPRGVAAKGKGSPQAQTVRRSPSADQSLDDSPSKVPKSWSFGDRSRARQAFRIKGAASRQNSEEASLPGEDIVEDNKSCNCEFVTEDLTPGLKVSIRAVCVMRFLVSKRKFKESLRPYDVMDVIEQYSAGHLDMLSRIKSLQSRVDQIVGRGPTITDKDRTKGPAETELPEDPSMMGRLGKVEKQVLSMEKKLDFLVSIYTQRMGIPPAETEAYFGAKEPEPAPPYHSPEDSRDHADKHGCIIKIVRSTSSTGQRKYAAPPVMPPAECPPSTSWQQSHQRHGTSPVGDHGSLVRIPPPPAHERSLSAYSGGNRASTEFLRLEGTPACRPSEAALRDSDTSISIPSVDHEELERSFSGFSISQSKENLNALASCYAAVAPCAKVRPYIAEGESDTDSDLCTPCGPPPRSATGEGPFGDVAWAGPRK

Genome polyprotein = Genome polyprotein (dengue virus type 2, UniProt P29990); experiment: Dengue-2 NS5 methyltransferase inhibitors, primary screen, biochemical, confirmation dose response (AID 588689); assay type: functional
Genome polyprotein, sequence (P29990 2492-3391 limits assumed): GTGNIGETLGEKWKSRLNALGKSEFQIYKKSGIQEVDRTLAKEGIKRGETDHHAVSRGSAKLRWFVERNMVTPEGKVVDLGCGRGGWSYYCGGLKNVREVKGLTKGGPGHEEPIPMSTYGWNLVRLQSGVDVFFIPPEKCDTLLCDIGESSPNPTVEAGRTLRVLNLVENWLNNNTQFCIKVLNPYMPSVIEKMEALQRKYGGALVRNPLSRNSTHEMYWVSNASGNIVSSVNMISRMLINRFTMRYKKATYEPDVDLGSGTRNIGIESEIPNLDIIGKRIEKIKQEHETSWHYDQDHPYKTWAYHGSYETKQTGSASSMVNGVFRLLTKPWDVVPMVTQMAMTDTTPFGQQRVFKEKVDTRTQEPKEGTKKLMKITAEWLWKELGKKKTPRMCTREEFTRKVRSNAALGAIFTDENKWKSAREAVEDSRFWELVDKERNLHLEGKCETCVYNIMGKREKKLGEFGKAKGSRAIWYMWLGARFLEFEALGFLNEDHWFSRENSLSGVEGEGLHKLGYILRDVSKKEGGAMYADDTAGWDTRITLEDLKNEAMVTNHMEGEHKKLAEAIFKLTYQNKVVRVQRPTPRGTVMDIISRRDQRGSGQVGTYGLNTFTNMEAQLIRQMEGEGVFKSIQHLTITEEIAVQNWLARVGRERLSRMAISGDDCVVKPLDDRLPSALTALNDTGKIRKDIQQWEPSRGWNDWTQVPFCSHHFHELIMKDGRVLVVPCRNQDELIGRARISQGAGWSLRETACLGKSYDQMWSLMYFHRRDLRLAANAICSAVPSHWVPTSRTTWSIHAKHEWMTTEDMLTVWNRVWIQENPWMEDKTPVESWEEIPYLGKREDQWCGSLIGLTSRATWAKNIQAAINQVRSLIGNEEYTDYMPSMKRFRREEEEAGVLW

[3] = Luminescence Cell-Based Dose Response HTS to Identify Activators of Luciferase Translation or Activity in H4 […] Cells. [Related pubchem assays: 1829 (Project Summary), 1814 (Primary HTS)]; assay type: functional
[4] = target: T4, Replicative DNA helicase DnaB (Mycobacterium tuberculosis, UniProt P9WMR3); experiment: DnaB intein splicing inhibitors, dose response, biochemical, cell-free fluorescence (AID 449749); assay type: functional
T4 sequence (P9WMR3 whole entry): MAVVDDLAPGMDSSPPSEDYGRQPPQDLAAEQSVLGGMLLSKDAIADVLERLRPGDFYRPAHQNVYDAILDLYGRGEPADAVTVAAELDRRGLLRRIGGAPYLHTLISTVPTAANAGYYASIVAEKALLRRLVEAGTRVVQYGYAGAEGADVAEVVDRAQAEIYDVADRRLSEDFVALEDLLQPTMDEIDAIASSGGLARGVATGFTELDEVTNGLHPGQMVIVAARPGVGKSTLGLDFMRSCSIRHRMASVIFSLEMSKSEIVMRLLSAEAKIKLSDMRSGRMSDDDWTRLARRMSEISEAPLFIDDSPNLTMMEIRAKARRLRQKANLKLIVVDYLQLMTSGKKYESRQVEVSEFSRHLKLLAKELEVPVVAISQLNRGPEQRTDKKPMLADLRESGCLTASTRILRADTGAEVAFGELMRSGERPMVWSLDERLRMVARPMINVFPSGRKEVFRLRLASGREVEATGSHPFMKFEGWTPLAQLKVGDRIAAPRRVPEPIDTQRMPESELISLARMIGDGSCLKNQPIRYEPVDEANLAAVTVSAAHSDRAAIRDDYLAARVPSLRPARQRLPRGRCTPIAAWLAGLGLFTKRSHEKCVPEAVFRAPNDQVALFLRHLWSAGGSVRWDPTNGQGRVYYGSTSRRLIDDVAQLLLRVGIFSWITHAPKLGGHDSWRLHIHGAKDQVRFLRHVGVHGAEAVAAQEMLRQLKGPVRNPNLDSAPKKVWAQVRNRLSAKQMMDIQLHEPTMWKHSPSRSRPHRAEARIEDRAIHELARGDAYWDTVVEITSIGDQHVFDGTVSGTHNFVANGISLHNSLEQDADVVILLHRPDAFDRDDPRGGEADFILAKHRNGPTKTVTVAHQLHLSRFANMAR

[5] = Shn3 3'UTR reporter inhibitors, dose response, cell-based, Clone20 osteoblasts, firefly luciferase, cherry-picked (AID 624132); assay type: functional;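 also: firefly luciferase luminescence from reporter carrying the Shn3 3'UTR in osteoblasts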
[6] = target: T5, High affinity choline transporter 1 (Homo sapiens, UniProt Q9GZV3); experiment: CHT inhibitors, dose response, cell-based, 5-point CRC, membrane potential dye (AID 504840); assay type: functional
T5 sequence (Q9GZV3 whole entry): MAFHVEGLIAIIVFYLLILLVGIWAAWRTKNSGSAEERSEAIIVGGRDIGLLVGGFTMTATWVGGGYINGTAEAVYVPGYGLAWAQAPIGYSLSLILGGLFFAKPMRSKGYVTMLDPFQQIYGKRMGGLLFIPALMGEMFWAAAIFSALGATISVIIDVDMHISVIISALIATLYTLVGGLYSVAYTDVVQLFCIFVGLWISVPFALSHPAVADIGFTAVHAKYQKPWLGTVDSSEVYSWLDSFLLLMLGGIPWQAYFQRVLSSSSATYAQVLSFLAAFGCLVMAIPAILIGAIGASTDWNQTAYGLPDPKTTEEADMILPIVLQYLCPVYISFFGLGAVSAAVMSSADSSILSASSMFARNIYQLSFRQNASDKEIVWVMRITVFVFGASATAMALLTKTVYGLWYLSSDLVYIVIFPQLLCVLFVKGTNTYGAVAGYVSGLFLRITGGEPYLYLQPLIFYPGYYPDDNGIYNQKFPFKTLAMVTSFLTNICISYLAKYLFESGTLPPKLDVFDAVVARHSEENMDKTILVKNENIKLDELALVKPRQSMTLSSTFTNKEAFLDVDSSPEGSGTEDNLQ

[7] = Luminescence Cell-Based Dose Confirmation HTS to Identify Activators of 5'UTR Stem-Loop Driven Alpha-Synuclein mRNA Translation in H4 Neuroglioblastoma Cells. [Related pubchem assays: 1829 (Project Summary), 1814 (Primary HTS)]; assay type: functional
[8] = target: Hepatocyte nuclear factor 4-alpha (Homo sapiens, UniProt P41235); assay type: functional, cell-based;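 also: biochemical luminescence-based dose-response counterscreen measuring inhibition of HNF4 dimerization, run alongside a screen for blockers of ABHD5–perilipin-5 interaction; split luciferase complementation of HNF4 fusion proteins in cell lysate measuring dimerization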
Hepatocyte nuclear factor 4-alpha, sequence (P41235 whole entry, the tested form may be a part): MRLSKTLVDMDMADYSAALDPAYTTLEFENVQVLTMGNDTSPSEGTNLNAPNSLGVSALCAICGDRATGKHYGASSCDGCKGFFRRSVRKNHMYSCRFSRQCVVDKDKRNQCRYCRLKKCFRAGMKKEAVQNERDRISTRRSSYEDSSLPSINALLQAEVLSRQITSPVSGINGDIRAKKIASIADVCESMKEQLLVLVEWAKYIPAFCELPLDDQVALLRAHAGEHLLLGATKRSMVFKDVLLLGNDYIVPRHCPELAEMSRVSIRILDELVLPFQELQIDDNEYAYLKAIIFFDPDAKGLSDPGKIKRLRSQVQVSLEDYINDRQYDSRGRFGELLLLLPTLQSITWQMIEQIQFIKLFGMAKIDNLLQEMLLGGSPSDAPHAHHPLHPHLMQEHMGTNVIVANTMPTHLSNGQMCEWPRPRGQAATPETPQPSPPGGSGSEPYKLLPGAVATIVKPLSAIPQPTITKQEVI

H4 = experiment: Luminescence Cell-Based Dose Response HTS to Identify Activators of 5'UTR Stem-Loop Driven Prion Protein mRNA Translation in H4 Neuroglioblastoma Cells. [Related pubchem assays: 1829 (Project Summary), 1814 (Primary HTS)]; assay type: functional; conditions: Homo sapiens
Vero = Vero cell cytotoxicity, cytotoxicity control for flavivirus capping enzyme inhibitors (AID 588742); assay type: functional; conditions: Chlorocebus sabaeus
[9] = target: T5, High affinity choline transporter 1; experiment: CHT inhibitors, dose response, cell-based, 10-point CRC, membrane potential dye (AID 588401); assay type: functional;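 also: membrane potential dye fluorescence of choline-evoked depolarization via CHT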
[10] = control 3'UTR Renilla luciferase suppression, dose response, counter-screen for Shn3 inhibitor project, cell-based, Clone20-Shn3RL, cherry-picked (AID 624133); assay type: functional
[11] = target: T6, Mannose-6-phosphate isomerase (Homo sapiens, UniProt P34949); experiment: inhibitors of human PMI, primary screen, biochemical, fluorescence intensity, coupled assay (AID 1209)
T6 sequence (P34949 whole entry): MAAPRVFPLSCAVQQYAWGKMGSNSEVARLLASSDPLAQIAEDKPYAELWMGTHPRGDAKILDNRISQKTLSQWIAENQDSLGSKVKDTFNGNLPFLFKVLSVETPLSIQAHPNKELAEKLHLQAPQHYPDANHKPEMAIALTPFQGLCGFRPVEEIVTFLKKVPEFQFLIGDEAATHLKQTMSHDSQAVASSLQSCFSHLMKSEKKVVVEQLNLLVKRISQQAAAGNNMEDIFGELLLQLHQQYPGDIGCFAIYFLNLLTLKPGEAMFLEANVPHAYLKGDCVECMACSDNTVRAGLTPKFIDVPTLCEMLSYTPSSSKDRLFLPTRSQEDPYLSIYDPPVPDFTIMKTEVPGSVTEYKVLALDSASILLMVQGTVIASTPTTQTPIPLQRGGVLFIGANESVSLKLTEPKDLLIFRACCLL

[12] = Vero E6 cell cytotoxicity, dose response, cytotoxicity control for non-replicating M. tuberculosis project, secondary assay (AID 492998); assay type: functional, VeroE6; conditions: Vero C1008
BJ [13] = experiment: cytotoxicity toward Ras-transformed BJeLR fibroblasts, dose response, cell-based, alamar blue fluorescence, cherrypicked samples (AID 2631); assay type: functional; conditions: Homo sapiens;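 also: confirmatory dose-response assay in RAS-dependent BJ fibroblasts engineered with TERT, LT and ST, with cytotoxicity read by fluorescence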
[14] = THP-1 cell cytotoxicity, dose response, cytotoxicity control for non-replicating M. tuberculosis project (AID 489025); assay type: functional
[15] = target: T1, Sphingosine 1-phosphate receptor 2; experiment: Dose Response Cell Based Assay for Antagonists of the S1P2 Receptor. [Related pubchem assays: 856, 736 ]; assay type: functional
BJ [16] = experiment: cytotoxicity toward BJ-TERT fibroblasts, dose response, cell-based, RAS-independent, luminescence (AID 1933); assay type: functional; conditions: Homo sapiens
BJ [17] = experiment: cells; assay type: functional, cell-based; conditions: Homo sapiens
INS1 = experiment: beta cell apoptosis inhibitors, cytokine rescue, dose response, luminescence, retest (AID 449756); assay type: functional, cell-based; conditions: Rattus norvegicus;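 also: cell death triggered by IL-1 beta plus TNF-alpha plus IFN-gamma mixture; protective hits raise ATP signal compared with cytokine alone wells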
BJ [18] = experiment: cytotoxicity toward BJ-TERT-LT-ST fibroblasts, dose response, cell-based, RAS-independent, luminescence (AID 1935); assay type: functional; conditions: Homo sapiens;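 also: BJ fibroblasts immortalized with TERT plus LT and ST oncogenes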
cells = assay type: functional
Nonstructural protein 1 = Nonstructural protein 1 (Influenza A virus, UniProt Q194T2); assay type: functional, Influenza A virus (A/California/07/2009(H1N1))
Nonstructural protein 1, sequence (Q194T2 whole entry): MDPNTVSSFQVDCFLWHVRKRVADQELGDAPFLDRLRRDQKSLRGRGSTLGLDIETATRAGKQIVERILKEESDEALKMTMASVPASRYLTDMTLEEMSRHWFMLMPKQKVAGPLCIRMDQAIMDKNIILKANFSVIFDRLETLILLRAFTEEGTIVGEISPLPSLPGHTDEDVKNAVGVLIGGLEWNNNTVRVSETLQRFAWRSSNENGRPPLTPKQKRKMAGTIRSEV

[19] = cytotoxicity toward DRD oncogenic fibroblasts, dose response, cell-based, non-viral oncogenic, luminescence (AID 1934); assay type: functional; conditions: Homo sapiens

T1 sequence (O95136 whole entry): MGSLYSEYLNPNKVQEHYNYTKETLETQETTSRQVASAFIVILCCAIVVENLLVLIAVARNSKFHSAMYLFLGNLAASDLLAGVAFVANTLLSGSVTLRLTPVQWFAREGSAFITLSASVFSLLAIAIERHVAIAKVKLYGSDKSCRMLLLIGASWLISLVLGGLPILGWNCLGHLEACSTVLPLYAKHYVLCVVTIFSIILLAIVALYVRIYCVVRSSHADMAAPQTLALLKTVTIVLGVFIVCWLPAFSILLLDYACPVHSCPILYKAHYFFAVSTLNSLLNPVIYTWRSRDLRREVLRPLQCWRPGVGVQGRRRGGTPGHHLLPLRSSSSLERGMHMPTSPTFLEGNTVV

Cc1cc(C(=O)CN(C)CC(=O)N(C)C)c(C)n1Cc1ccccc1
EC50 [1]: > 30 µM (not active)

COc1cccc(-c2nc(OC(C)C)c3ccccc3n2)c1
EC50 (Streptococcus): 68.7 µM (active)
EC50 (Streptokinase A): 8.2 µM (active)

CCc1nnc(NC(=O)c2nc(S(=O)(=O)Cc3cccc(C)c3)ncc2Cl)s1
EC50 (Protein RecA): 4.37 µM (active)
EC50 [2]: 16.8 µM (active)
IC50 (Genome polyprotein): > 100 µM (active)
EC50 [3]: > 120 µM (not active)
AC50 [4]: 5.05 µM (active)
AC50 [5]: 2.51 µM (active)
IC50 [6]: 2.4 µM (active)
EC50 [7]: > 120 µM (not active)
IC50 [8]: 5.05 µM (active)
EC50 (H4): > 120 µM (not active)
CC50 (Vero): 26.6 µM (active)
IC50 [9]: 2.82 µM (active)
AC50 [10]: 6.99 µM (active)

CC1=C(C)/C(=N\OS(=O)(=O)c2ccccc2)C=CC1=O
EC50 (Protein RecA): 7.72 µM (active)
IC50 [11]: 6.61 µM (active)
CC50 [12]: > 20 µM (active)
EC50 (BJ [13]): 0.557 µM (inconclusive)
CC50 [14]: 12.1 µM (active)
EC50 [3]: > 120 µM (not active)
IC50 [15]: 4.33 µM (active)
AC50 [4]: 87.4 µM (active)
EC50 (BJ [16]): 2.78 µM (inconclusive)
EC50 (BJ [17]): 2.92 µM (active)
AC50 (INS1): 1.92 µM (active)
EC50 (BJ [18]): 4.32 µM (inconclusive)
IC50 (cells): 11.4 µM (active)
EC50 [7]: > 120 µM (not active)
IC50 (Nonstructural protein 1): > 100 µM (active)
EC50 (H4): > 120 µM (not active)
EC50 [19]: 4.57 µM (active)
